From patent publication US20260262643A1, “HERBICIDAL BENZOXAZINES” (FMC CORPORATION, priority 2022, published 2026)

Experiments:
wheat [1] = test: Test A postemergence; type: in vivo, Triticum aestivum
Summary of the method: (§1)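 Loam/sand soil; pre-em directed soil spray at planting, post-em spray at 1–2 leaf (2–10 cm). Compound in non-phytotoxic solvent + surfactant. Greenhouse 10 d; visual injury vs untreated, 0 = no effect, 100 = complete control.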

ducksalad = test: Test B flooded paddy test; type: in vivo, Heteranthera limosa; conditions: 250 g ai/ha, Flood, 13 days, 0 to 100 scale (0 no effect, 100 complete control)
Summary of the method: (§2)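 Percent weed or crop control, judged by eye on a 0–100 scale 13 days post-treatment, reflects compound added to a 3 cm flood maintained over 2-leaf plants in the greenhouse. Missing entries are marked with a dash.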

rice = test: Test B flooded paddy test; type: in vivo, Oryza sativa; conditions: 250 g ai/ha, Flood, 13 days, 0 to 100 scale (0 no effect, 100 complete control)
Summary of the method: as §2

ryegrass, Italian [2] = test: Test A preemergence; type: in vivo, Lolium multiflorum
Summary of the method: as §1

foxtail, giant [3] = test: Test A postemergence; type: in vivo, Setaria faberi
Summary of the method: as §1

goosegrass [4] = test: Test A postemergence; type: in vivo, Eleusine indica
Summary of the method: as §1

kochia [5] = test: Test A postemergence; type: in vivo, Bassia scoparia
Summary of the method: as §1

foxtail, giant [6] = test: Test A preemergence; type: in vivo, Setaria faberi
Summary of the method: as §1

sedge, umbrella = test: Test B flooded paddy test; type: in vivo, Cyperus difformis; conditions: 250 g ai/ha, Flood, 13 days, 0 to 100 scale (0 no effect, 100 complete control)
Summary of the method: as §2

oat, wild [7] = test: Test A postemergence; type: in vivo, Avena fatua
Summary of the method: as §1

blackgrass [8] = test: Test A postemergence; type: in vivo, Alopecurus myosuroides
Summary of the method: as §1

corn [9] = test: Test A preemergence; type: in vivo, Zea mays
Summary of the method: as §1

galium = test: Test A postemergence; type: in vivo, Galium aparine
Summary of the method: as §1

wheat [10] = test: Test A preemergence; type: in vivo, Triticum aestivum
Summary of the method: as §1

pigweed, palmer [11] = test: Test A postemergence; type: in vivo, Amaranthus palmeri
Summary of the method: as §1

oat, wild [12] = test: Test A preemergence; type: in vivo, Avena fatua
Summary of the method: as §1

soybean [13] = test: Test A postemergence; type: in vivo, Glycine max
Summary of the method: as §1

ryegrass, Italian [14] = test: Test A postemergence; type: in vivo, Lolium multiflorum
Summary of the method: as §1

horseweed = test: Test A postemergence; type: in vivo, Erigeron canadensis
Summary of the method: as §1

ragweed [15] = test: Test A preemergence; type: in vivo, Ambrosia artemisiifolia
Summary of the method: as §1

ragweed [16] = test: Test A postemergence; type: in vivo, Ambrosia artemisiifolia
Summary of the method: as §1

barnyardgrass = test: Test B flooded paddy test; type: in vivo, Echinochloa crus-galli; conditions: 250 g ai/ha, Flood, 13 days, 0 to 100 scale (0 no effect, 100 complete control)
Summary of the method: as §2

kochia [17] = test: Test A preemergence; type: in vivo, Bassia scoparia
Summary of the method: as §1

pigweed, palmer [18] = test: Test A preemergence; type: in vivo, Amaranthus palmeri
Summary of the method: as §1

corn [19] = test: Test A postemergence; type: in vivo, Zea mays
Summary of the method: as §1

blackgrass [20] = test: Test A preemergence; type: in vivo, Alopecurus myosuroides
Summary of the method: as §1

soybean [21] = test: Test A preemergence; type: in vivo, Glycine max
Summary of the method: as §1

goosegrass [22] = test: Test A preemergence; type: in vivo, Eleusine indica
Summary of the method: as §1

[23] = 125 g ai/ha, postemergence, 10 days, 0 to 100 scale, 0 no effect, 100 complete control
[24] = 500 g ai/ha, postemergence, 10 days, visual injury, 0 to 100 scale (0 no effect, 100 complete control)
[25] = 125 g ai/ha, visual injury after 10 days, 0 to 100 scale, 0 is no effect, 100 is complete control
[26] = 500 g ai/ha, 0 to 100 scale (0 no effect, 100 complete control), 10 days
[27] = 125 g ai/ha, postemergence, 10 days, visual injury, 0 to 100 scale (0 no effect, 100 complete control)
[28] = 500 g ai/ha, Postemergence, 0 to 100 scale

## CCOc1ccc(-n2cnc(C(C)C)n2)cc1C(=O)N1C[C@H](C)Oc2c(Cl)cccc21 [Compound 106]
Wheat [1]; [23]
  Wheat plant response rating: 20
Wheat [1]; [24]
  Plant response rating, Wheat: 40
ducksalad
  Plant response rating, Ducksalad: 10
rice
  Plant response rating, Rice: 15
ryegrass, Italian [2]; [25]
  Plant response rating, Ryegrass, Italian: 40
ryegrass, Italian [2]; [26]
  Plant response rating, Ryegrass, Italian: 100
foxtail, giant [3]; [23]
  Foxtail, Giant plant response rating: 90
foxtail, giant [3]; [24]
  Plant response rating, Foxtail, Giant: 100
Goosegrass [4]; [23]
  Goosegrass plant response rating: 70
Goosegrass [4]; [24]
  Plant response rating, Goosegrass: 90
Kochia [5]; [23]
  Kochia plant response rating: 90
Kochia [5]; [24]
  Plant response rating, Kochia: 90
foxtail, giant [6]; [25]
  Plant response rating, Foxtail, Giant: 100
foxtail, giant [6]; [26]
  Plant response rating, Foxtail, Giant: 100
sedge, umbrella
  Plant response rating, Sedge, Umbrella: 90
oat, wild [7]; [23]
  Oat, Wild plant response rating: 30
oat, wild [7]; [24]
  Plant response rating, Oat, Wild: 60
Blackgrass [8]; [23]
  Blackgrass plant response rating: 60
Blackgrass [8]; [24]
  Plant response rating, Blackgrass: 80
Corn [9]; [25]
  Plant response rating, Corn: 10
Corn [9]; [26]
  Plant response rating, Corn: 50
galium; [23]
  Galium plant response rating: 70
galium; [24]
  Plant response rating, Galium: 100
Wheat [10]; [25]
  Plant response rating, Wheat: 0
Wheat [10]; [26]
  Plant response rating, Wheat: 40
pigweed, palmer [11]; [23]
  Pigweed, Palmer plant response rating: 70
pigweed, palmer [11]; [24]
  Plant response rating, Pigweed, Palmer: 90
oat, wild [12]; [25]
  Plant response rating, Oat, Wild: 20
oat, wild [12]; [26]
  Plant response rating, Oat, Wild: 90
Soybean [13]; [23]
  Soybean plant response rating: 100
Soybean [13]; [24]
  Plant response rating, Soybean: 100
ryegrass, Italian [14]; [23]
  Ryegrass, Italian plant response rating: 20
ryegrass, Italian [14]; [24]
  Plant response rating, Ryegrass, Italian: 80
horseweed; [23]
  Horseweed plant response rating: 10
horseweed; [24]
  Plant response rating, Horseweed: 80
Ragweed [15]; [25]
  Plant response rating, Ragweed: 30
Ragweed [15]; [26]
  Plant response rating, Ragweed: 100
Ragweed [16]; [23]
  Ragweed plant response rating: 50
Ragweed [16]; [24]
  Plant response rating, Ragweed: 70
barnyardgrass
  Plant response rating, Barnyardgrass: 55
Kochia [17]; [25]
  Plant response rating, Kochia: 50
Kochia [17]; [26]
  Plant response rating, Kochia: 100
pigweed, palmer [18]; [25]
  Plant response rating, Pigweed, Palmer: 100
pigweed, palmer [18]; [26]
  Plant response rating, Pigweed, Palmer: 100
Corn [19]; [23]
  Corn plant response rating: 60
Corn [19]; [24]
  Plant response rating, Corn: 90
Blackgrass [20]; [25]
  Plant response rating, Blackgrass: 0
Blackgrass [20]; [26]
  Plant response rating, Blackgrass: 0
Soybean [21]; [25]
  Plant response rating, Soybean: 50
Soybean [21]; [26]
  Plant response rating, Soybean: 100
Goosegrass [22]; [25]
  Plant response rating, Goosegrass: 100
Goosegrass [22]; [26]
  Plant response rating, Goosegrass: 100

## Cc1ncn(-c2cccc(C(=O)N3C[C@H](C)Oc4c(C)cccc43)c2)n1 [Compound 51]
Wheat [1]; [27]
  Plant response rating, Wheat: 30
Wheat [1]; [28]
  Plant response rating, Wheat: 80
ducksalad
  Plant response rating, Ducksalad: 65
rice
  Plant response rating, Rice: 15
ryegrass, Italian [2]; [25]
  Plant response rating, Ryegrass, Italian: 90
ryegrass, Italian [2]; [26]
  Plant response rating, Ryegrass, Italian: 100
foxtail, giant [3]; [27]
  Plant response rating, Foxtail, Giant: 90
foxtail, giant [3]; [28]
  Plant response rating, Foxtail, Giant: 90
Goosegrass [4]; [27]
  Plant response rating, Goosegrass: 40
Goosegrass [4]; [28]
  Plant response rating, Goosegrass: 80
Kochia [5]; [27]
  Plant response rating, Kochia: 60
Kochia [5]; [28]
  Plant response rating, Kochia: 70
foxtail, giant [6]; [25]
  Plant response rating, Foxtail, Giant: 100
foxtail, giant [6]; [26]
  Plant response rating, Foxtail, Giant: 100
sedge, umbrella
  Plant response rating, Sedge, Umbrella: 80
oat, wild [7]; [27]
  Plant response rating, Oat, Wild: 30
oat, wild [7]; [28]
  Plant response rating, Oat, Wild: 70
Blackgrass [8]; [27]
  Plant response rating, Blackgrass: 40
Blackgrass [8]; [28]
  Plant response rating, Blackgrass: 50
Corn [9]; [25]
  Plant response rating, Corn: 20
Corn [9]; [26]
  Plant response rating, Corn: 50
galium; [27]
  Plant response rating, Galium: 80
galium; [28]
  Plant response rating, Galium: 100
Wheat [10]; [25]
  Plant response rating, Wheat: 20
Wheat [10]; [26]
  Plant response rating, Wheat: 60
pigweed, palmer [11]; [27]
  Plant response rating, Pigweed, Palmer: 20
pigweed, palmer [11]; [28]
  Plant response rating, Pigweed, Palmer: 50
oat, wild [12]; [25]
  Plant response rating, Oat, Wild: 30
oat, wild [12]; [26]
  Plant response rating, Oat, Wild: 90
Soybean [13]; [27]
  Plant response rating, Soybean: 100
Soybean [13]; [28]
  Plant response rating, Soybean: 100
ryegrass, Italian [14]; [27]
  Plant response rating, Ryegrass, Italian: 70
ryegrass, Italian [14]; [28]
  Plant response rating, Ryegrass, Italian: 90
horseweed; [27]
  Plant response rating, Horseweed: 0
horseweed; [28]
  Plant response rating, Horseweed: 20
Ragweed [15]; [25]
  Plant response rating, Ragweed: 0
Ragweed [15]; [26]
  Plant response rating, Ragweed: 0
Ragweed [16]; [27]
  Plant response rating, Ragweed: 0
Ragweed [16]; [28]
  Plant response rating, Ragweed: 0
barnyardgrass
  Plant response rating, Barnyardgrass: 25
Kochia [17]; [25]
  Plant response rating, Kochia: 70
Kochia [17]; [26]
  Plant response rating, Kochia: 90
pigweed, palmer [18]; [25]
  Plant response rating, Pigweed, Palmer: 0
pigweed, palmer [18]; [26]
  Plant response rating, Pigweed, Palmer: 60
Corn [19]; [27]
  Plant response rating, Corn: 30
Corn [19]; [28]
  Plant response rating, Corn: 50
Blackgrass [20]; [25]
  Plant response rating, Blackgrass: 30
Blackgrass [20]; [26]
  Plant response rating, Blackgrass: 60
Soybean [21]; [25]
  Plant response rating, Soybean: 90
Soybean [21]; [26]
  Plant response rating, Soybean: 100
Goosegrass [22]; [25]
  Plant response rating, Goosegrass: 90
Goosegrass [22]; [26]
  Plant response rating, Goosegrass: 100
